According to ChEMBL document CHEMBL1201862, “PubChem BioAssay data set” (2004):
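Test compounds were applied to cells in 96-well plates for 48 hours at 5 doses. Here, GI50 denotes the concentration required for 50% inhibition of growth.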 The source made the active and inactive calls. No stated cut-off is given here; in the data, active = GI50 up to about 1.1 µM and inactive = higher.

Columns and labels:
Experiment in all cases: growth of human tumour cells (NCI), 48 h
[1] = tested on: CCRF-CEM
[2] = tested on: COLO 205
[3] = tested on: EKVX
[4] = tested on: HCT-15
[5] = tested on: HOP-62
[6] = tested on: K562
[7] = tested on: M14
[8] = tested on: MOLT-4
[9] = tested on: NCI-H460
[10] = tested on: NCI-H522
[11] = tested on: OVCAR-4
[12] = tested on: OVCAR-5
[13] = tested on: SF-539
[14] = tested on: SK-MEL-28
[15] = tested on: SK-MEL-5
[16] = tested on: SK-OV-3
[17] = tested on: SN12C
[18] = tested on: UACC-62
[19] = tested on: CAKI-1
[20] = tested on: HOP-92

SMILES	GI50 [1]	GI50 [2]	GI50 [3]	GI50 [4]	GI50 [5]	GI50 [6]	GI50 [7]	GI50 [8]	GI50 [9]	GI50 [10]	GI50 [11]	GI50 [12]	GI50 [13]	GI50 [14]	GI50 [15]	GI50 [16]	GI50 [17]	GI50 [18]	GI50 [19]	GI50 [20]
O=C(O)c1c[nH]c2c(ccc3ncccc32)c1=O	> 100 µM (inactive)	> 100 µM (inactive)	> 100 µM (inactive)	> 100 µM	> 100 µM (inactive)	> 100 µM (inactive)	> 100 µM (inactive)	> 100 µM (inactive)	> 100 µM (inactive)	> 100 µM (inactive)	> 100 µM (inactive)	> 100 µM (inactive)	> 100 µM (inactive)	> 100 µM (inactive)	> 100 µM (inactive)	> 100 µM (inactive)	> 100 µM (inactive)	> 100 µM (inactive)	–	–
Cc1ccc2nc(N/N=C/c3sccc3C)cc(C)c2c1	> 100 µM (inactive)	> 100 µM (inactive)	> 100 µM (inactive)	> 100 µM	29.3 µM (inactive)	> 100 µM (inactive)	> 100 µM (inactive)	> 100 µM (inactive)	–	–	34.9 µM (inactive)	> 100 µM (inactive)	–	> 100 µM (inactive)	28.8 µM (inactive)	21.1 µM (inactive)	> 100 µM (inactive)	> 100 µM (inactive)	> 100 µM (inactive)	35 µM (inactive)
O=C(O)C1C2CCC(O2)C1C(=O)Nc1cccc2cccnc12 (stereo not drawn)	–	–	> 100 µM (inactive)	> 100 µM	> 100 µM (inactive)	> 100 µM (inactive)	> 100 µM (inactive)	–	55.5 µM (inactive)	88.5 µM (inactive)	> 100 µM (inactive)	> 100 µM (inactive)	–	> 100 µM (inactive)	–	> 100 µM (inactive)	> 100 µM (inactive)	> 100 µM (inactive)	> 100 µM (inactive)	–
COc1cc(C2SC(=N)Nc3c2c(C)nn3C(=O)Cc2ccccc2)cc(OC)c1OC (stereo not drawn)	> 100 µM (inactive)	> 100 µM (inactive)	> 100 µM (inactive)	> 100 µM	> 100 µM (inactive)	> 100 µM (inactive)	> 100 µM (inactive)	> 100 µM (inactive)	> 100 µM (inactive)	> 100 µM (inactive)	–	–	> 100 µM (inactive)	> 100 µM (inactive)	> 100 µM (inactive)	> 100 µM (inactive)	> 100 µM (inactive)	> 100 µM (inactive)	> 100 µM (inactive)	–
N#CC(CCN1CCC(Nc2ccccc2)(c2nnnn2C2CCCCC2)CC1)(c1ccccc1)c1ccccc1	> 100 µM (inactive)	> 100 µM (inactive)	> 100 µM (inactive)	> 100 µM	> 100 µM (inactive)	> 100 µM (inactive)	> 100 µM (inactive)	> 100 µM (inactive)	> 100 µM (inactive)	> 100 µM (inactive)	> 100 µM (inactive)	> 100 µM (inactive)	> 100 µM (inactive)	> 100 µM (inactive)	> 100 µM (inactive)	> 100 µM (inactive)	> 100 µM (inactive)	> 100 µM (inactive)	–	–
COc1ccc(Nc2nnc(-c3nsc4ccccc34)s2)cc1	34.7 µM (inactive)	63.7 µM (inactive)	58.6 µM (inactive)	62.8 µM	8.26 µM (inactive)	47.2 µM (inactive)	> 100 µM (inactive)	46.5 µM (inactive)	15 µM (inactive)	–	2.47 µM (inactive)	> 100 µM (inactive)	31.8 µM (inactive)	> 100 µM (inactive)	> 84.3 µM (inactive)	2.52 µM (inactive)	> 61.4 µM (inactive)	> 100 µM (inactive)	54.5 µM (inactive)	9.73 µM (inactive)
